Measurements published in patent publication US20240247250A1, “COMPOSITIONS AND METHODS FOR MODIFYING DNA” (The Regents of the University of California, priority 2021, published 2024).
Entries after “also recorded” stand apart in the source; their conditions may differ.

Target: tRNA guanine transglycosylase (TGT) (Escherichia coli, UniProt P0A847)
Test: TGT labeling of DNA/RNA hairpin oligos with PreQ1 probes, urea PAGE gel shift
Assay type: biochemical, E. coli
Settings: for turn over by TGT: extended stem DNA analog of ECYA1 with minimal recognition element mutations, denaturing urea PAGE shift and intensity; for labeling of the representative DNA hairpin substrate by functional PreQ1 probes: urea PAGE gel shift assays; for labeled product: 17 nucleotide DNA hairpins derived from cognate tRNA anticodon loops
[1] = urea PAGE gel shift and intensity

Sequence of tRNA guanine transglycosylase (TGT) (P0A847 whole entry): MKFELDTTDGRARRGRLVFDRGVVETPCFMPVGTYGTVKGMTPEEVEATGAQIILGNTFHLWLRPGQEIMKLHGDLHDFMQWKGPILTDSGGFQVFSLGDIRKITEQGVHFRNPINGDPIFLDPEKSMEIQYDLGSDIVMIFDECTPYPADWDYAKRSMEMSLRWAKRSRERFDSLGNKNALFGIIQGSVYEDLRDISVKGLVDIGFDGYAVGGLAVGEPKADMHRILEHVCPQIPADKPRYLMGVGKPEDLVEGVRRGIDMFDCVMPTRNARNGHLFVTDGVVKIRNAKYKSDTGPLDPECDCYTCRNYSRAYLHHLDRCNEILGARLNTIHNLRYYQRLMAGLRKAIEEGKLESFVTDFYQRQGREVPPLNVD

## CTGGACTGTCACTCCAG [His(stem)-Asp(loop)]
Composite hairpins with swapped stems and loops, urea PAGE gel shift and intensity
  labeling efficiency: over 50%

## GGGAGCAGACTGTAAATCTGCTCCC [dTdGdT]
PreQ1-biotin probe
  turn over by TGT: no appreciable turn over

## Nc1nc2[nH]cc(CNCCCCCCNC(=O)CCCCC3SCC4NC(=O)NC43)c2c(=O)[nH]1 (stereo not shown) [PreQ1-biotin]
  labeling of the representative DNA hairpin substrate by functional PreQ1 probes: Quantitative labeling

## CTGGATTGTCCTTCCAG [SEQ ID NO:21]
LCMS analysis of PreQ1-biotin labeled sequence
  labeling with PreQ1-biotin confirmed by LCMS: efficient labeling
PreQ1-biotin probe, urea PAGE gel shift, listed as TAG2 DNA hairpin
  labeling of hairpin or loop sequence appended to longer ssDNA: can be modified internally; also recorded: can be modified at either end of a DNA sequence of interest

## Alexa Fluor 647
  labeling of the representative DNA hairpin substrate by functional PreQ1 probes: Quantitative labeling

## GCAGACTGTAAATCTGC [tyrosine based counterpart]
[1]
  labeled product: ~-5%

## CCTGCCTGTCACGCAGG
[1]
  labeled product: ~40%

## GGGAGCAGACUGTAAATCTGCTCCC [dUdGdT]
PreQ1-biotin probe
  turn over by TGT: no appreciable turn over

## GGGAGCAGACTGUAAATCTGCTCCC [dTdGdU]
PreQ1-biotin probe
  turn over by TGT: comparable turn over to the wildtype RNA substrate

## TAMRA
  labeling of the representative DNA hairpin substrate by functional PreQ1 probes: Quantitative labeling

## GGGAGCAGACUGUAAATCTGCTCCC [dUdGdU]
PreQ1-biotin probe
  turn over by TGT: comparable turn over to the wildtype RNA substrate

## CTGGATTGTGATTCCAG
[1]
  labeled product: ~40%
